Legend:
Assay type in all cases: in vivo
[1] = tested on: sedge, umbrella (small-flower umbrella sedge, Cyperus difformis); assay: Test B flooded paddy test, visual plant response rating; details: 250 g ai/ha, Flood, applied to paddy water, 2-leaf stage, evaluated after 13 to 15 days
Summary of the method: (§1)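 Plants were raised to the 2-leaf stage, then pots were flooded to 3 cm above the soil and test compound was applied directly into the paddy water. Water depth was held for the whole test; after 13 to 15 days in a greenhouse, responses were scored visually against controls.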

[2] = tested on: ducksalad (Heteranhera limosa); assay: as above; details: 250 g ai/ha, Flood, applied to paddy water, 2-leaf stage, evaluated after 13 to 15 days
Summary of the method: as §1

[3] = tested on: barnyardgrass (Echinochloa crus-galli); assay: as above; details: 250 g ai/ha, Flood, applied to paddy water, 2-leaf stage, evaluated after 13 to 15 days
Summary of the method: as §1

rice (Oryza sativa) = assay: as above; details: 250 g ai/ha, Flood, applied to paddy water, 2-leaf stage, evaluated after 13 to 15 days
Summary of the method: as §1

[4] = tested on: Italian ryegrass (Lolium multiflorum); assay: Test A preemergence, visual plant response rating; details: for Ryegrass, Italian plant response rating: 125 g ai/ha, preemergence, 0 to 100 scale, 0 no effect, 100 complete control; for Ryegrass, Italian plant response rating (0 to 100 scale): 500 g ai/ha Preemergence, approx. 10 days
Summary of the method: (§2)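 Compared with untreated controls, treated plants received a visual injury score on a 0–100 scale around 10 days after application. The compound, in a non-phytotoxic solvent with surfactant, was given as a preemergence soil spray or postemergence at the one- to two-leaf stage.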

[5] = tested on: ragweed (common ragweed, Ambrosia elatior); assay: Test A preemergence, visual plant response rating; details: for Ragweed plant response rating: 125 g ai/ha, preemergence, 0 to 100 scale, 0 no effect, 100 complete control; for Ragweed plant response rating (0 to 100 scale): 500 g ai/ha Preemergence, approx. 10 days
Summary of the method: as §2

[6] = tested on: foxtail, giant (giant foxtail, Setaria faberii); assay: Test A preemergence, visual plant response rating; details: for Foxtail, Giant plant response rating: 125 g ai/ha, preemergence, 0 to 100 scale, 0 no effect, 100 complete control; for Foxtail, Giant plant response rating (0 to 100 scale): 500 g ai/ha Preemergence, approx. 10 days
Summary of the method: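 Greenhouse pot test in loam–sand soil mix: compound in a surfactant-containing non-phytotoxic solvent applied preemergence (directed soil spray) or postemergence (one- to two-leaf plants, 2–10 cm). Injury scored visually after ~10 days, 0–100.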

[7] = tested on: barnyardgrass (Echinochloa crus-galli); assay: Test A preemergence, visual plant response rating; details: for Barnyardgrass plant response rating: 125 g ai/ha, preemergence, 0 to 100 scale, 0 no effect, 100 complete control; for Barnyardgrass plant response rating (0 to 100 scale): 500 g ai/ha Preemergence, approx. 10 days
Summary of the method: as §2

kochia (Kochia scoparia) [8] = assay: Test A preemergence, visual plant response rating; details: for Kochia plant response rating: 125 g ai/ha, preemergence, 0 to 100 scale, 0 no effect, 100 complete control; for Kochia plant response rating (0 to 100 scale): 500 g ai/ha Preemergence, approx. 10 days
Summary of the method: as §2

[9] = tested on: pigweed (Amaranthus retroflexus); assay: Test A preemergence, visual plant response rating; details: for Pigweed plant response rating: 125 g ai/ha, preemergence, 0 to 100 scale, 0 no effect, 100 complete control; for Pigweed plant response rating (0 to 100 scale): 500 g ai/ha Preemergence, approx. 10 days
Summary of the method: as §2

[10] = tested on: blackgrass (Alopecurus myosuroides); assay: Test A postemergence, visual plant response rating; details: for Blackgrass plant response rating (0 to 100 scale): 500 g ai/ha, postemergence, 0 is no effect, 100 is complete control; for Blackgrass plant response rating: Postemergence, 125 g ai/ha, 0 to 100 scale (0 no effect, 100 complete control)
Summary of the method: as §2

[11] = tested on: wheat (Triticum aestivum); assay: Test A postemergence, visual plant response rating; details: for Wheat plant response rating (0 to 100 scale): 500 g ai/ha, postemergence, 0 is no effect, 100 is complete control; for Wheat plant response rating: Postemergence, 125 g ai/ha, 0 to 100 scale (0 no effect, 100 complete control)
Summary of the method: as §2

[12] = tested on: galium (catchweed bedstraw, Galium aparine); assay: Test A postemergence, visual plant response rating; details: for Galium plant response rating (0 to 100 scale): 500 g ai/ha, postemergence, 0 is no effect, 100 is complete control; for Galium plant response rating: Postemergence, 125 g ai/ha, 0 to 100 scale (0 no effect, 100 complete control)
Summary of the method: as §2

[13] = tested on: Italian ryegrass (Lolium multiflorum); assay: Test A postemergence, visual plant response rating; details: for Ryegrass, Italian plant response rating (0 to 100 scale): 500 g ai/ha, postemergence, 0 is no effect, 100 is complete control; for Ryegrass, Italian plant response rating: Postemergence, 125 g ai/ha, 0 to 100 scale (0 no effect, 100 complete control)
Summary of the method: as §2

[14] = tested on: ragweed (common ragweed, Ambrosia elatior); assay: Test A postemergence, visual plant response rating; details: for Ragweed plant response rating (0 to 100 scale): 500 g ai/ha, postemergence, 0 is no effect, 100 is complete control; for Ragweed plant response rating: Postemergence, 125 g ai/ha, 0 to 100 scale (0 no effect, 100 complete control)
Summary of the method: as §2

[15] = tested on: foxtail, giant (giant foxtail, Setaria faberii); assay: Test A postemergence, visual plant response rating; details: for Foxtail, Giant plant response rating (0 to 100 scale): 500 g ai/ha, postemergence, 0 is no effect, 100 is complete control; for Foxtail, Giant plant response rating: Postemergence, 125 g ai/ha, 0 to 100 scale (0 no effect, 100 complete control)
Summary of the method: as §2

[16] = tested on: barnyardgrass (Echinochloa crus-galli); assay: Test A postemergence, visual plant response rating; details: for Barnyardgrass plant response rating (0 to 100 scale): 500 g ai/ha, postemergence, 0 is no effect, 100 is complete control; for Barnyardgrass plant response rating: Postemergence, 125 g ai/ha, 0 to 100 scale (0 no effect, 100 complete control)
Summary of the method: as §2

kochia (Kochia scoparia) [17] = assay: Test A postemergence, visual plant response rating; details: for Kochia plant response rating (0 to 100 scale): 500 g ai/ha, postemergence, 0 is no effect, 100 is complete control; for Kochia plant response rating: Postemergence, 125 g ai/ha, 0 to 100 scale (0 no effect, 100 complete control)
Summary of the method: as §2

[18] = tested on: pigweed (Amaranthus retroflexus); assay: Test A postemergence, visual plant response rating; details: for Pigweed plant response rating (0 to 100 scale): 500 g ai/ha, postemergence, 0 is no effect, 100 is complete control; for Pigweed plant response rating: Postemergence, 125 g ai/ha, 0 to 100 scale (0 no effect, 100 complete control)
Summary of the method: as §2

corn (Zea mays) = assay: Test A postemergence, visual plant response rating; details: for Corn plant response rating (0 to 100 scale): 500 g ai/ha, postemergence, 0 is no effect, 100 is complete control; for Corn plant response rating: Postemergence, 125 g ai/ha, 0 to 100 scale (0 no effect, 100 complete control)
Summary of the method: as §2

SMILES: CCCc1ccccc1/C(=N\OC)c1c(O)c(C)nn(C)c1=O [Compound 92]
- Plant response rating, Sedge, Umbrella (0 to 100 scale, 0 is no effect, 100 is complete control) [1]: 0
- Plant response rating, Ducksalad (0 to 100 scale, 0 is no effect, 100 is complete control) [2]: 0
- Plant response rating, Barnyardgrass (0 to 100 scale, 0 is no effect, 100 is complete control) [3]: 0
- Plant response rating, Rice (0 to 100 scale, 0 is no effect, 100 is complete control) (rice (Oryza sativa)): 0
- Ryegrass, Italian plant response rating [4]: 40
- Ryegrass, Italian plant response rating (0 to 100 scale) [4]: 80
- Ragweed plant response rating [5]: 20
- Ragweed plant response rating (0 to 100 scale) [5]: 30
- Foxtail, Giant plant response rating [6]: 70
- Foxtail, Giant plant response rating (0 to 100 scale) [6]: 80
- Barnyardgrass plant response rating [7]: 30
- Barnyardgrass plant response rating (0 to 100 scale) [7]: 60
- Kochia plant response rating (kochia (Kochia scoparia) [8]): 0
- Kochia plant response rating (0 to 100 scale) (kochia (Kochia scoparia) [8]): 10
- Pigweed plant response rating [9]: 30
- Pigweed plant response rating (0 to 100 scale) [9]: 90
- Blackgrass plant response rating (0 to 100 scale) [10]: 70
- Blackgrass plant response rating [10]: 20
- Wheat plant response rating (0 to 100 scale) [11]: 0
- Wheat plant response rating [11]: 0
- Galium plant response rating (0 to 100 scale) [12]: 70
- Galium plant response rating [12]: 70
- Ryegrass, Italian plant response rating (0 to 100 scale) [13]: 60
- Ryegrass, Italian plant response rating [13]: 50
- Ragweed plant response rating (0 to 100 scale) [14]: 70
- Ragweed plant response rating [14]: 60
- Foxtail, Giant plant response rating (0 to 100 scale) [15]: 60
- Foxtail, Giant plant response rating [15]: 50
- Barnyardgrass plant response rating (0 to 100 scale) [16]: 40
- Barnyardgrass plant response rating [16]: 20
- Kochia plant response rating (0 to 100 scale) (kochia (Kochia scoparia) [17]): 60
- Kochia plant response rating (kochia (Kochia scoparia) [17]): 30
- Pigweed plant response rating (0 to 100 scale) [18]: 80
- Pigweed plant response rating [18]: 60
- Corn plant response rating (0 to 100 scale) (corn (Zea mays)): 10
- Corn plant response rating (corn (Zea mays)): 0

SMILES: CO/N=C(/c1ccccc1C(C)C)c1c(O)c(C)nn(C)c1=O [Compound 93]
- Plant response rating, Sedge, Umbrella (0 to 100 scale, 0 is no effect, 100 is complete control) [1]: 0
- Plant response rating, Ducksalad (0 to 100 scale, 0 is no effect, 100 is complete control) [2]: 65
- Plant response rating, Barnyardgrass (0 to 100 scale, 0 is no effect, 100 is complete control) [3]: 0
- Plant response rating, Rice (0 to 100 scale, 0 is no effect, 100 is complete control) (rice (Oryza sativa)): 0
- Ryegrass, Italian plant response rating [4]: 20
- Ryegrass, Italian plant response rating (0 to 100 scale) [4]: 70
- Ragweed plant response rating [5]: 0
- Ragweed plant response rating (0 to 100 scale) [5]: 0
- Foxtail, Giant plant response rating [6]: 10
- Foxtail, Giant plant response rating (0 to 100 scale) [6]: 30
- Barnyardgrass plant response rating [7]: 0
- Barnyardgrass plant response rating (0 to 100 scale) [7]: 50
- Kochia plant response rating (kochia (Kochia scoparia) [8]): 0
- Kochia plant response rating (0 to 100 scale) (kochia (Kochia scoparia) [8]): 0
- Pigweed plant response rating [9]: 0
- Pigweed plant response rating (0 to 100 scale) [9]: 20
- Blackgrass plant response rating (0 to 100 scale) [10]: 70
- Blackgrass plant response rating [10]: 0
- Wheat plant response rating (0 to 100 scale) [11]: 10
- Wheat plant response rating [11]: 0
- Galium plant response rating (0 to 100 scale) [12]: 70
- Galium plant response rating [12]: 60
- Ryegrass, Italian plant response rating (0 to 100 scale) [13]: 80
- Ryegrass, Italian plant response rating [13]: 40
- Ragweed plant response rating (0 to 100 scale) [14]: 50
- Ragweed plant response rating [14]: 10
- Foxtail, Giant plant response rating (0 to 100 scale) [15]: 40
- Foxtail, Giant plant response rating [15]: 30
- Barnyardgrass plant response rating (0 to 100 scale) [16]: 20
- Barnyardgrass plant response rating [16]: 10
- Kochia plant response rating (0 to 100 scale) (kochia (Kochia scoparia) [17]): 30
- Kochia plant response rating (kochia (Kochia scoparia) [17]): 0
- Pigweed plant response rating (0 to 100 scale) [18]: 80
- Pigweed plant response rating [18]: 50
- Corn plant response rating (0 to 100 scale) (corn (Zea mays)): 10
- Corn plant response rating (corn (Zea mays)): 10

From US20210045385A1, “PYRIDAZINONE-SUBSTITUTED KETOXIMES AS HERBICIDES” (FMC Corporation, priority 2018, published 2021)
